18 molecules from ChEMBL document CHEMBL1134934, “Synthesis and evaluation of 5-HT(2A) and 5-HT(2C) receptor binding affinities of novel pyrimidine derivatives” (Bioorg Med Chem Lett, 2002) can be followed below.

Assay [1] deals with T1, 5-hydroxytryptamine receptor 2A (Homo sapiens, UniProt P28223). The assay is described as follows: Affinity for 5-hydroxytryptamine 2A receptor.
For assay [2], the target named is T2, 5-hydroxytryptamine receptor 2C (Homo sapiens, UniProt P28335).
T2 sequence (P28335 whole entry): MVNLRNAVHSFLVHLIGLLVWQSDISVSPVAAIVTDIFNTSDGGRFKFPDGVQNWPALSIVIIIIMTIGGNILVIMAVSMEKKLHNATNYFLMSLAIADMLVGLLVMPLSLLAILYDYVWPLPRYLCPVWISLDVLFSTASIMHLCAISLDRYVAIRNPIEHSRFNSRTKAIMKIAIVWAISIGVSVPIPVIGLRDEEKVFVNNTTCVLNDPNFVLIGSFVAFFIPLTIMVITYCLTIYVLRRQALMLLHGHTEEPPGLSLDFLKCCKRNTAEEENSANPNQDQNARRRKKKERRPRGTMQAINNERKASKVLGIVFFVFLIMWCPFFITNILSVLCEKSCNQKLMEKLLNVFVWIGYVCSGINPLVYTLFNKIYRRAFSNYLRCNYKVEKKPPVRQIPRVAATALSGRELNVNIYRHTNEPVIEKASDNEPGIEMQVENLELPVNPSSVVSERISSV
The assay can be described thus: Affinity for 5-hydroxytryptamine 2C receptor.

Assay [3] addresses Serotonin 2 receptors; 5-HT2a & 5-HT2c (Homo sapiens) (UniProt P28223+P28335). The assay is described as follows: Relative affinity for 5-HT2C over 5-HT2A receptors. The assay is classed as protein assay.
For assay [4], the target named is T1, 5-hydroxytryptamine receptor 2A. The assay is described as follows: Binding affinity towards 5-hydroxytryptamine 2A receptor was determined at a concentration of 0.000001 mol/L.
Assay [5] concerns the target T3, 5-hydroxytryptamine receptor 2C (Homo sapiens) (UniProt P28335).
T3 sequence (whole entry): T2 sequence (P28335 whole entry)
The assay is described as follows: Binding affinity towards 5-hydroxytryptamine 2C receptor was determined at a concentration of 0.000001 mol/L.

For assay [6], the target named is T1, 5-hydroxytryptamine receptor 2A. The assay is described as follows: Binding affinity towards 5-hydroxytryptamine 2A receptor was determined at a concentration of 0.00001 mol/L.
The target of assay [7] is T3, 5-hydroxytryptamine receptor 2C (Homo sapiens). The assay can be described thus: Binding affinity towards 5-hydroxytryptamine 2C receptor was determined at a concentration of 0.00001 mol/L.

What is called Ki is the equilibrium dissociation constant of an inhibitor or competing ligand from its target. A word on the inhibition: it is the drop in the measured response relative to a control, in per cent. Low readings indicate a weak effect, high ones a strong effect.

Molecules are shown by their SMILES.

Chain of Serotonin 2 receptors; 5-HT2a & 5-HT2c (Homo sapiens) (P28223 whole entry, looked up, one chain of several): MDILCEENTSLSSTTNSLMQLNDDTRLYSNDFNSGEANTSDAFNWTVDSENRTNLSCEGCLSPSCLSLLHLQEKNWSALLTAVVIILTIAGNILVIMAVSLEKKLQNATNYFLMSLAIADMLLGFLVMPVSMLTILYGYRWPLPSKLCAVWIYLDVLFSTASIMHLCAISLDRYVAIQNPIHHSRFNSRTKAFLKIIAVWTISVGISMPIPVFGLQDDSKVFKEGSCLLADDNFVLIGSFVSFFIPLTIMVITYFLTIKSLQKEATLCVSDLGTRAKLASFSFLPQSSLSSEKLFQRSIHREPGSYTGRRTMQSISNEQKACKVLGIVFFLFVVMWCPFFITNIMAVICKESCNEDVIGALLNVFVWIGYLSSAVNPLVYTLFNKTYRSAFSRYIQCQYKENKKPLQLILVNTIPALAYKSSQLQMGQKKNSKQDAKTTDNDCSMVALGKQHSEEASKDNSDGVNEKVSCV
T1 sequence (P28223 whole entry): as the sequence (P28223 whole entry, looked up, one chain of several) above

As to `COc1cccc(Cc2c(N)nc(SCCN3CCN(Cc4cccc(C(F)(F)F)c4)CC3)nc2N)c1`, the inhibition constant (Ki) was 44.6 nM in assay [1] and 4.9 nM in assay [2]. Besides, the Ratio in assay [3] was determined as 9.1.

On to `Nc1nc(SCCN2CCN(Cc3ccccc3Cl)CC2)nc(N)c1Cc1ccccc1`, for which the inhibitory constant (Ki) in assay [1] came out at 18.3 nM; in assay [2], 11.9 nM. Also, the Ratio in assay [3] was determined as 1.5.

As to `COc1cc(Cc2c(N)nc(SCCN3CCN(Cc4ccccc4Cl)CC3)nc2N)cc(OC)c1OC`, the inhibition constant Ki was 4.3 nM in assay [1] and 18.3 nM in assay [2]. Besides, in assay [3], the Ratio worked out at 0.2.

Consider `COc1ccccc1Cc1c(N)nc(SCCN2CCN(Cc3cccc(C(F)(F)F)c3)CC2)nc1N`, for which the Ki in assay [1] stood at 60.4 nM; in assay [2] it was 5.5 nM. Further, the Ratio in assay [3] worked out at 11.

`Nc1nc(SCCN2CCN(Cc3ccc([N+](=O)[O-])cc3)CC2)nc(N)c1Cc1ccccc1`: the inhibition came to 99% in assay [4] and 67% in assay [5].

For `Nc1cc(N)nc(SCCN2CCN(Cc3ccc([N+](=O)[O-])cc3)CC2)n1`, the inhibition in assay [6] amounted to 89%; in assay [7] it was 77%.

In the case of `Nc1nc(SCCN2CCN(Cc3ccccc3Cl)CC2)nc(N)c1Cc1ccccc1O`, the figures for the inhibition constant Ki in assay [1] and in assay [2] were 22.8 nM and 5.5 nM, respectively. Further, the Ratio in assay [3] is 4.2.

For the molecule `Nc1nc(SCCN2CCN(Cc3cccc(C(F)(F)F)c3)CC2)nc(N)c1Cc1ccccc1O`, the Ki was determined as 93.2 nM in assay [1] and 6.2 nM in assay [2]. Besides, the Ratio in assay [3] amounted to 15.

Take `Nc1cc(N)nc(SCCCN2CCN(Cc3ccc([N+](=O)[O-])cc3)CC2)n1`: the inhibition was found to be 54% in assay [6] and 21% in assay [7].

In the case of `COc1ccc(Cc2c(N)nc(SCCN3CCN(Cc4ccc(C)cc4)CC3)nc2N)cc1`, the results for the Ki in assay [1] and in assay [2] were 12.5 nM and 300 nM, respectively. The Ratio in assay [3] is 0.04.

Regarding `COc1ccccc1Cc1c(N)nc(SCCN2CCN(Cc3ccccc3C(F)(F)F)CC2)nc1N`, the inhibition constant (Ki) in assay [1] turned out to be 47.7 nM; in assay [2] it was 7.7 nM. Also, the Ratio in assay [3] turned out to be 6.2.

On to `COc1ccc(Cc2c(N)nc(SCCN3CCN(Cc4ccccc4C)CC3)nc2N)cc1`, for which the Ki stood at 11.5 nM in assay [1] and 16.4 nM in assay [2]. Moreover, in assay [3], the Ratio was 0.7.

Take `CCOc1ccccc1Cc1c(N)nc(SCCN2CCN(Cc3cccc(C(F)(F)F)c3)CC2)nc1N`: the Ki in assay [1] stood at 69.9 nM; in assay [2], 9.1 nM. The Ratio in assay [3] worked out at 7.7.

In the case of `Nc1nc(SCCN2CCN(Cc3ccc([N+](=O)[O-])cc3)CC2)nc(N)c1CC1CCCCC1`, the inhibition is 10% in assay [6] and 32% in assay [7].

`Nc1nc(SCCN2CCN(Cc3ccccc3C(F)(F)F)CC2)nc(N)c1Cc1ccccc1`: the values for the Ki in assay [1] and in assay [2] were 61.1 nM and 21.4 nM, respectively. The Ratio in assay [3] came to 2.9.

For the molecule `COc1ccc(Cc2c(N)nc(SCCN3CCN(Cc4ccccc4Cl)CC3)nc2N)cc1`, the results for the Ki in assay [1] and in assay [2] were 5.7 nM and 10.4 nM, respectively. Moreover, the Ratio in assay [3] was 0.6.

With `CC(C)Oc1ccccc1Cc1c(N)nc(SCCN2CCN(Cc3cccc(C(F)(F)F)c3)CC2)nc1N`, the inhibitory constant (Ki) in assay [1] was found to be 121 nM; in assay [2], 8.6 nM. For the same molecule, in assay [3], the Ratio came to 14.

Turning to `Nc1nc(SCCN2CCN(Cc3ccccc3Cl)CC2)nc(N)c1Cc1ccccc1Cl`, the Ki in assay [1] amounted to 11.8 nM; in assay [2], 8.7 nM. Besides, the Ratio in assay [3] stood at 1.4.
